How the values were obtained:
[1] = biological target: T1, reduced folate carriers (RFCs) (Homo sapiens, UniProt P41440); settings: higher than MTX; cited from earlier work
T1 sequence (P41440 1-591): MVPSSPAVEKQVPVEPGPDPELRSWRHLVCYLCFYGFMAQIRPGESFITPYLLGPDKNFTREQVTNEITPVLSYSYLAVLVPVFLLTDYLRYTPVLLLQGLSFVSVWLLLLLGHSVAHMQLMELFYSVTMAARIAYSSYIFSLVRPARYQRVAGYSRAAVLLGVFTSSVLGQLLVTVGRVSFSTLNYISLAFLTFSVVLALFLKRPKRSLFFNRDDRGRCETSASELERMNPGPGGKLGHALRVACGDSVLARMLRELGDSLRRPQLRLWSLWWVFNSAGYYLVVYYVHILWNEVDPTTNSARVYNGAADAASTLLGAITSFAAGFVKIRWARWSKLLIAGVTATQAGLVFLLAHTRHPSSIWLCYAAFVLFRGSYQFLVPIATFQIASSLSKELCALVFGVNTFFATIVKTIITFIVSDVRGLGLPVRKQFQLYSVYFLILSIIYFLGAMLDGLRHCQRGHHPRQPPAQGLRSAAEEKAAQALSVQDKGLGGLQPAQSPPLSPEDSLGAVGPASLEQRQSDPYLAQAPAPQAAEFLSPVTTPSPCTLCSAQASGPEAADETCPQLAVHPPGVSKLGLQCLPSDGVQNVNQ

[2] = test system: CCD841 colon epithelium cells; test: Toxicity to CCD841 colon epithelium cells; assay type: cell-based; settings: all concentrations tested (16-128 nM), 48 hours, FIG. 17
From the text: (§1) Methodologies used for cell line AML12 (non-cancerous liver cells) and CCD841 (non-cancerous colon epithelial cells) are similar to the methods used for cancer cells.

AML12 liver cells = test: Toxicity to AML12 liver cells; assay type: cell-based; settings: all doses studied (16-128 nM), 48 hours, FIG. 16
From the text: as §1

SMILES: Nc1nc2[nH]cc(CCc3ccc(C(=O)N[C@@H](CCC(=O)O)C(=O)O)cc3)c2c(=O)[nH]1 [pemetrexed]
- Affinity of RFCs for PMX relative to that for MTX [1]: 2 fold
- Decrease in the number of CCD841 colon epithelium cells [2]: ≥ 50%
- Reduction in the AML12 liver cell counts (AML12 liver cells): approximately 40%

Reference: patent US12178882B2, “Alpha polyglutamated pemetrexed and uses thereof” (L.E.A.F. HOLDINGS GROUP LLC, priority 2016, dated 2024)
